Values belong to the compound of their own block, whether it stands above or below them.
Key:
[1] = test system: control 1321N1 astrocytoma cells; assay: calcium flux in control 1321N1 astrocytoma cells; format: cell-based, human; details: 10 µM, non-transfected 1321N1 astrocytoma cells
cardiac P2X receptor = details: cited from earlier work
[2] = hydrolysis of the 5’-phosphate in the presence of mammalian cell membranes; format: in vitro ADME; details: incubation at 37°C with 1321N1 astrocytoma cell membranes (data not shown)
aorta ring preparations = details: cited from earlier work
CSQ-overexpressing mouse = details: Alzet mini-osmotic pump; cited from earlier work
[3] = stability of the C-O-P bond in aqueous medium at pH 1.5; format: physicochemical; details: aqueous medium at pH 1.5, over 24 h

Compound: CSc1nc(N)c2ncn([C@@H]3O[C@H](COP(=O)(O)OP(=O)(O)O)[C@@H](O)[C@H]3O)c2n1 [Compound 2-MeSADP, 2-MeSADP]
- change in intracellular Ca2+ in control cells [1]: no change

Compound: CNc1nc(I)nc2c1ncn2[C@H]1C[C@H](OP(=O)(O)O)[C@]2(COP(=O)(O)O)C[C@H]12 [MRS2500]
- block of the membrane current evoked by 3 (cardiac P2X receptor; voltage clamp in mouse cardiac myocytes): could not block

- hydrolysis of the 5’-phosphate [2]: considerable hydrolysis
- stability of the C-O-P bond [3]: stable
Compound: Nc1nc(Cl)nc2c1ncn2[C@H]1[C@H](O)[C@H](O)[C@@]2(COP(=O)(O)O)C[C@H]12 [Compound 3, (1’S,2’R,3’S,4’R,5’S)-4-(6-amino-2-chloro-9H-purin-9-yl)-1-[phosphoryloxymethyl] bicyclo[3.1.0]hexane-2,3-diol]
- current induced in the CSQ myocyte (cardiac P2X receptor; CSQ myocyte): induced a current
- vasodilator action (aorta ring preparations): devoid of any vasodilator action
- longevity compared to vehicle-injected mice (CSQ-overexpressing mouse): significantly increased longevity
